From ChEMBL document CHEMBL1150884, “Antifungal amide from leaves of Piper hispidum” (1998)

System: Cladosporium sphaerospermum
Assay: Antifungal activity against Cladosporium sphaerospermum after 72 hrs in dark by TLC assay
Type: functional

MIC: 8 µg
SMILES: O=C(/C=C\C=C/CCc1ccc2c(c1)OCO2)N1CCCC1
